Assay results: US7799775B2, “Pyrimidine derivatives” (ASKA Pharmaceutical Co., Ltd., priority 2004, dated 2010)

How the values were obtained:
[1] = molecular target: T1, human 5-HT3 receptor (Homo sapiens, UniProt P46098); assay: Measurement of affinity to human 5-HT3 receptor (in vitro), [3H]BRL-43694 binding; conditions: test compound 100 nmols/L; [3H]BRL-43694 0.5 nmols/L; HEK-293 cell membrane expressing human 5-HT3 receptor; read-out: Percent Inhibition (%) on Each Receptor's Binding at 10^−7M, 5-HT3
T1 construct: purchased BIOLINKS K.K; host or cells: HEK-293 cells (membrane preparation)
T1 sequence (P46098 24-478): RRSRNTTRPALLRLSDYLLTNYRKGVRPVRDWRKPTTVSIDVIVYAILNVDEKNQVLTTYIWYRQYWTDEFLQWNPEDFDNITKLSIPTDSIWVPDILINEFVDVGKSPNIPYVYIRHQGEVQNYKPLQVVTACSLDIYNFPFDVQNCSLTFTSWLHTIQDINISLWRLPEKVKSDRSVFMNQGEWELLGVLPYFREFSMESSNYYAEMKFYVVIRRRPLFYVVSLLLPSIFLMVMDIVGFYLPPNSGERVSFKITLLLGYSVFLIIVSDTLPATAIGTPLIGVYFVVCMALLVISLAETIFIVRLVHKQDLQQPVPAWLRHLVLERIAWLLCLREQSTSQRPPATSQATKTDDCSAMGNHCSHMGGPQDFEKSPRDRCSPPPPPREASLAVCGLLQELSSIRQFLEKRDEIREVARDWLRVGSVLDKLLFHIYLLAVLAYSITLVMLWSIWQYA
Outline: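 Membranes from HEK-293 cells expressing the receptor were incubated with 0.5 nmol/L radioligand and compound for 60 min at 25 °C in Tris/MgCl2/EDTA buffer, pH 7.5. Bound radioactivity was collected by filtration and counted. Percent inhibition was corrected for non-specific binding defined with 10 μmol/L tropisetron; compounds were tested at 100 nmol/L.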

[2] = molecular target: T2, 5-HT1A receptor (Rattus norvegicus, UniProt P19327); assay: Measurement of 5-HT1A receptor agonistic action on rats (in vivo): lower lip retraction and flat body posture; conditions: SD male rats, 10 mg/kg intraperitoneal; maximum of group evaluation points, 4 grades 0-3, observed 5-30 min after administration
T2 construct: from tissue; host or cells: whole animal (SD male rats), behavioural read-out
T2 sequence (P19327 1-422): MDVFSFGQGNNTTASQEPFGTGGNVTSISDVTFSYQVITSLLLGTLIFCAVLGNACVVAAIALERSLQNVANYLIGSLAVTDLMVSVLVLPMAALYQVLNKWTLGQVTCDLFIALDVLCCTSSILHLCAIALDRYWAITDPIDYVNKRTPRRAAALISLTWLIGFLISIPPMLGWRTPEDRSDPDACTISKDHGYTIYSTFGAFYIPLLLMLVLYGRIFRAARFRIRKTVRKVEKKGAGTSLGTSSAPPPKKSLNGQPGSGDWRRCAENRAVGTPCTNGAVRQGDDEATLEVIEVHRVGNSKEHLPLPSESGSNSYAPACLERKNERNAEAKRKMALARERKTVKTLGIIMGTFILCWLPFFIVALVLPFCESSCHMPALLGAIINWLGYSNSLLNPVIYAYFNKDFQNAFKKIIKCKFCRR
Procedure: (3) Measurement of 5-HT1A Receptor Agonistic Action on Rats (in Vivo):
Seven weeks old SD male rats were divided into 4-5 rats per group which were accustomized to the experimental environments twice. A week after the second accustomization, the rats were put into a transparent plastic case, and 10 mg/kg of a test compound (as dissolved in 1N-hydrochloric acid and diluted with suitable amount of saline) was intraperitoneally administered thereto. Immediately before the administration and 5, 10, 20 and 30 minutes after the administration, behaviors of the rats were observed as to lower lip retraction (LLP) and flat body posture (FBP). The results were evaluated in 4 grades (0: no reaction, 1: feeble reaction, 2: medium reaction, 3: maximum reaction).

[3] = tested on: rats under restraint stress; assay: Measurement of defecation acceleration in rats under restraint stress; type: in vivo, rat; conditions: 1 hour restraint stress, group average (Normal 1.7, Control 6.8)
Procedure: (5) Measurement of Defecation Acceleration in Rats under Restraint Stress […] Feed and drinking water were left for their free ingestion until the morning of the day on which the test was given. On the day of the experiment, test compounds were orally administered and positive control solution (the used compounds were dissolved in 1N-hydrochloric acid and diluted with a suitable amount of saline) was administered intraperitoneally. Five (5) minutes thereafter, under lightly anesthetized condition, the rats were placed under restraint stress, with their upper half of the bodies including the front feet immobilized with gum tape. The restraint stress loading was conducted for an hour, and the number of excrements discharged during that period was counted. […] Those compounds which were used as the positive control chemicals used in the acceleration of defecation in rats under restraint stress are identified with the following structures.

With `Clc1ccc2ccnc(N3CCNCC3)c2c1` [Production Example 49, 7-chloro-1-piperazin-1-ylisoquinoline] the inhibition at 0.1 µM [1] was 96.3%, the “5-HT1A Receptor Agonistic Action on Rats, FBP” value [2] was 1.8 and the “5-HT1A Receptor Agonistic Action on Rats, LLR” value [2] was 2.2.
With `c1cc2ccsc2c(N2CCN3CCC[C@@H]3C2)n1` [Production Example 108, 7-((8aR)-octahydropyrrolo[1,2-a]pyrazin-2-yl)thieno[2,3-c]pyridine] the inhibition at 0.1 µM [1] was 100%, the “5-HT1A Receptor Agonistic Action on Rats, FBP” value [2] was 0.4 and the “5-HT1A Receptor Agonistic Action on Rats, LLR” value [2] was 2.4.
For `c1cc2sccc2c(N2CCN3CCC[C@H]3C2)n1` [Production Example 104, 4-((8aS)-octahydropyrrolo[1,2-a]pyrazin-2-yl)thieno[3,2-c]pyridine], the inhibition at 0.1 µM [1] was 99.3%, the “5-HT1A Receptor Agonistic Action on Rats, FBP” value [2] was 0.2 and the “5-HT1A Receptor Agonistic Action on Rats, LLR” value [2] was 1.6.
In the case of `COc1ccc2ccnc(N3CCN4CCC[C@H]4C3)c2c1` [Production Example 72, 1-((8aS)-octahydropyrrolo[1,2-a]pyrazin-2-yl)-7-methoxyisoquinoline], the inhibition at 0.1 µM [1] is reported as 99.8%, the “5-HT1A Receptor Agonistic Action on Rats, FBP” value [2] is reported as 3.0 and the “5-HT1A Receptor Agonistic Action on Rats, LLR” value [2] is reported as 3.0.
`c1cc2ccsc2c(N2CCN3CCC[C@H]3C2)n1` [Production Example 103, 7-((8aS)-octahydropyrrolo[1,2-a]pyrazin-2-yl)thieno[2,3-c]pyridine] was tested, and the inhibition at 0.1 µM [1] was 99.5%, the “5-HT1A Receptor Agonistic Action on Rats, FBP” value [2] was 0.4 and the “5-HT1A Receptor Agonistic Action on Rats, LLR” value [2] was 3.0.
For `Nn1c(CCCCN2CCN(c3ccc4ccccc4n3)CC2)nc2ccccc2c1=O` [Example 4-3, 3-amino-2-[4-(4-quinolin-2-ylpiperazin-1-yl)butyl]-3H-quinazolin-4-one], the inhibition at 0.1 µM [1] was 83.6%, the “5-HT1A Receptor Agonistic Action on Rats, FBP” value [2] was 1.8 and the “5-HT1A Receptor Agonistic Action on Rats, LLR” value [2] was 1.8.
In the case of `Cc1cc(N2CCN(CCCCc3nc4c(c(=O)n3C)CCCC4)CC2)nc2ccccc12` [Example 7-6, 3-methyl-2-[4-[4-(4-methylquinolin-2-yl)piperazin-1-yl]butyl]-5,6,7,8-tetrahydro-3H-quinazolin-4-one], the inhibition at 0.1 µM [1] is reported as 93.8%, the “5-HT1A Receptor Agonistic Action on Rats, FBP” value [2] is reported as 2.0 and the “5-HT1A Receptor Agonistic Action on Rats, LLR” value [2] is reported as 2.4. The Number of excrements ([3]; 1 mg/kg oral administration) was 5.4, the Number of excrements ([3]; 3 mg/kg oral administration) was 4.0 and the Number of excrements ([3]; 10 mg/kg oral administration) was 2.9.
With `Nn1c(CCCCN2CCN(c3ccc4ccccc4n3)CC2)nc2cccc(Cl)c2c1=O` [Example 4-25, 3-amino-5-chloro-2-[4-(4-quinolin-2-ylpiperazin-1-yl)butyl]-3H-quinazolin-4-one] the inhibition at 0.1 µM [1] was 43.3%, the “5-HT1A Receptor Agonistic Action on Rats, FBP” value [2] was 1.0 and the “5-HT1A Receptor Agonistic Action on Rats, LLR” value [2] was 0.8.
For `Cc1ccc2ccnc(N3CCN(C)CC3)c2c1` [Production Example 47, 7-methyl-1-(4-methylpiperazin-1-yl)isoquinoline], the inhibition at 0.1 µM [1] was 93.6%.
In the case of `Cc1cc2c(N3CCN4CCC[C@H]4C3)nccc2s1` [Production Example 107, 4-((8aS)-octahydropyrrolo[1,2-a]pyrazin-2-yl)-2-methylthieno[3,2-c]-pyridine], the inhibition at 0.1 µM [1] is reported as 95.9%, the “5-HT1A Receptor Agonistic Action on Rats, FBP” value [2] is reported as 3.0 and the “5-HT1A Receptor Agonistic Action on Rats, LLR” value [2] is reported as 2.8.
In the case of `CN1CCN(c2nccc3ccsc23)CC1` [Production Example 6, 7-(4-methylpiperazin-1-yl)thieno[2,3-c]pyridine], the inhibition at 0.1 µM [1] is reported as 97.5%, the “5-HT1A Receptor Agonistic Action on Rats, FBP” value [2] is reported as 2.4 and the “5-HT1A Receptor Agonistic Action on Rats, LLR” value [2] is reported as 2.8.
`CCn1c(CCCCN2CCN(c3ccc4ccccc4n3)CC2)nc2c(c1=O)CCCC2` [Example 7-2, 3-2-[4-(4-quinolin-2-ylpiperazin-1-yl)butyl]-5,6,7,8-tetrahydro-3H-quinazolin-4-one] was tested, and the inhibition at 0.1 µM [1] was 94.5%, the “5-HT1A Receptor Agonistic Action on Rats, FBP” value [2] was 0.4 and the “5-HT1A Receptor Agonistic Action on Rats, LLR” value [2] was 0.2.
In the case of `Nn1c(CCCCN2CCN(c3ccc4ccccc4n3)CC2)nc2ccsc2c1=O` [Example 4-18, 3-amino-2-[4-(4-quinolin-2-ylpiperazin-1-yl)butyl]-3H-thieno[3,2-d]-pyrimidin-4-one], the inhibition at 0.1 µM [1] is reported as 50.9%, the “5-HT1A Receptor Agonistic Action on Rats, FBP” value [2] is reported as 2.8 and the “5-HT1A Receptor Agonistic Action on Rats, LLR” value [2] is reported as 2.2.
In the case of `CCn1c(CCCCN2CCN(c3cc(C)c4ccccc4n3)CC2)nc2c(c1=O)CCCC2` [Example 7-7, 3-ethyl-2-[4-[4-(4-methylquinolin-2-yl)piperazin-1-yl]butyl]-5,6,7,8-tetrahydro-3H-quinazolin-4-one], the inhibition at 0.1 µM [1] is reported as 95%, the “5-HT1A Receptor Agonistic Action on Rats, FBP” value [2] is reported as 2.2 and the “5-HT1A Receptor Agonistic Action on Rats, LLR” value [2] is reported as 2.2.
With `Cn1c(CCCCN2CCN(c3ccc4ccccc4n3)CC2)nc2c(c1=O)CCCC2` [Example 7-1, 3-methyl-2-[4-(4-quinolin-2-ylpiperazin-1-yl)butyl]-5,6,7,8-tetrahydro-3H-quinazolin-4-one] the inhibition at 0.1 µM [1] was 94.2%, the “5-HT1A Receptor Agonistic Action on Rats, FBP” value [2] was 1.8 and the “5-HT1A Receptor Agonistic Action on Rats, LLR” value [2] was 2.2. The Number of excrements ([3]; 1 mg/kg oral administration) was 5.8, the Number of excrements ([3]; 3 mg/kg oral administration) was 3.8 and the Number of excrements ([3]; 10 mg/kg oral administration) was 2.3.
For `Nn1c(CCCCN2CCN(c3ccc4ccccc4n3)CC2)nc2c(c1=O)CCCC2` [Example 4-1, 3-amino-2-[4-(4-quinolin-2-ylpiperazin-1-yl)butyl]-5,6,7,8-tetrahydro-3H-quinazolin-4-one], the inhibition at 0.1 µM [1] was 81.2%, the “5-HT1A Receptor Agonistic Action on Rats, FBP” value [2] was 1.8 and the “5-HT1A Receptor Agonistic Action on Rats, LLR” value [2] was 1.5. The Number of excrements ([3]; 0.3 mg/kg intraperitoneal administration) was 5.3, the Number of excrements ([3]; 1 mg/kg intraperitoneal administration) was 4.3 and the Number of excrements ([3]; 3 mg/kg intraperitoneal administration) was 2.1.
`c1cc2ccoc2c(N2CCN3CCC[C@H]3C2)n1` [Production Example 102, 7-((8aS)-octahydropyrrolo[1,2-a]pyrazin-2-yl)furo[2,3-c]-pyridine] was tested, and the inhibition at 0.1 µM [1] was 98.9%, the “5-HT1A Receptor Agonistic Action on Rats, FBP” value [2] was 3.0 and the “5-HT1A Receptor Agonistic Action on Rats, LLR” value [2] was 3.0.
For `Clc1ccc2ccnc(N3CCN4CCC[C@H]4C3)c2c1` [Production Example 73, 7-chloro-1-((8aS)-octahydropyrrolo[1,2-a]pyrazin-2-yl)isoquinoline], the inhibition at 0.1 µM [1] was 99.3%, the “5-HT1A Receptor Agonistic Action on Rats, FBP” value [2] was 2.2 and the “5-HT1A Receptor Agonistic Action on Rats, LLR” value [2] was 2.4.
For `COc1ccc2ccnc(N3CCNC(C)C3)c2c1` (centres unmarked) [Production Example 38, 7-methoxy-1-(3-methylpiperazin-1-yl)isoquinoline], the inhibition at 0.1 µM [1] was 93.1%.
`Cc1cc(N2CCN(CCCCc3nc4ccccc4c(=O)n3N)CC2)nc2ccccc12` [Example 4-4, 3-amino-2-[4-[4-(4-methylquinolin-2-yl)piperazin-1-yl]butyl]-3H-quinazolin-4-one] was tested, and the inhibition at 0.1 µM [1] was 78.6%, the “5-HT1A Receptor Agonistic Action on Rats, FBP” value [2] was 2.6 and the “5-HT1A Receptor Agonistic Action on Rats, LLR” value [2] was 2.8.
`CN1CCN(c2nccc3sccc23)CC1` [Production Example 8, 4-(4-methylpiperazin-1-yl)thieno[3,2-c]pyridine] was tested, and the inhibition at 0.1 µM [1] was 93.3%, the “5-HT1A Receptor Agonistic Action on Rats, FBP” value [2] was 0.8 and the “5-HT1A Receptor Agonistic Action on Rats, LLR” value [2] was 2.0.
